{
  "source": "patent US12002595B2",
  "about": "“Separation of metal ions by liquid-liquid extraction” (priority 2016, dated 2024)",
  "key": {"[1]": {"conditions": "cited from earlier work"}, "[2]": {"test": "Extraction by HDEHP with 1 mM 343HOPO in 0.1 M HNO3 and 1.9 M NaNO3", "procedure": "Aqueous phase: 1 mM 343HOPO in 0.1 M HNO3 and 1.9 M NaNO3. Organic phase: HDEHP in kerosene.\nA log scale is used for clarity. See FIGS. 58A and 58B for results as a function of the phase ratio.\nFor Example 20—Example 24, pH measurements were performed with a glass electrode (Metrohm-Micro Combi-response to [H+]) calibrated at 25.0° C. using three NIST standards. Extraction samples were analyzed by liquid scintillation counting (LSC). The distribution coefficient, D(M), of a given metal, M, is defined in Eq. 1, where [M]organic and [M]aqueous are the respective total concentrations of M in the organic and aqueous layers, after extraction. Both concentrations are proportional to the volumetric activity (in Bq/L) determined by LSC. The separation factor, SFM1/M2, between two metals, M1 and M2, and extraction yield were calculated according to Eq. 2 and Eq. 3, respectively.\nIn a typical experiment, the solvent (extractant diluted in kerosene) was pre-conditioned by shaking one volume of solvent with three volumes of aqueous phase (typically HNO3) at room temperature for 1 h, thrice. For radioisotope extractions, at least 400 μL aqueous phase (typically containing HNO3, a chelator and a radioisotope) and solvent were placed in air-tight screw-capped plastic tubes, triply-contained, and shaken in a thermoshaker at 300 rpm, 25° C., for at least 30 min. Samples were then centrifuged for 5 min at 3000 rpm and phases separated before analysis. LSC analyses were performed on a Packard Tri-Carb B4430 instrument (Perkin Elmer) after mixing sample aliquots or sample dilution aliquots (10 to 200 μL) with 10 mL of scintillation cocktail (UltimaGold LLT). Samples were counted for at least 6 min and results were background subtracted. The analytical samples contained between 0 and 800,000 CPM. Mixtures of ^249Bk and ^249Cf were analyzed using α/β discrimination and energy windows were set to 0-50 keV for low-energy β particles of ^249Bk and 50-1000 keV for α particles of ^249Cf. ^243Am and ^225Ac samples were counted at secular equilibrium."}, "[3]": {"test": "Extraction of plutonium(IV) by HDEHP as a function of pH with hold-back reagent", "conditions": "for % Extraction: 40 mM hold-back reagent, 0.5 M HDEHP", "procedure": "(§1) All liquid-liquid extractions were conducted using a 1:1 organic to aqueous phase ratio for a total volume of 1 mL. Samples were pH adjusted by HNO3 and prepared for a final concentration of 1.0 M sodium lactate, 40 mM of hold-back reagent (160 mM in the case of the HOPO monomer), and 2.0 M Na^+. The concentration of the trivalent f-element was dependent on the availability and radioactivity of the isotopes. The organic phase consisted of 0.5 M HDEHP in kerosene. All samples were incubated in a thermostatic shaker held at 28° C. and rocked at 280 rpm for 90 minutes. To ensure complete phase separation, samples were left overnight at room temperature to equilibrate. Radioactive samples were analyzed by liquid scintillation counting (LSC). The analytical protocol consisted of diluting 10 uL of radioactive sample into 10 mL of Ultima Gold™. Ultima Gold™ is a commercially available analytical reagent commonly used for LSC. The resulting analytical samples were shaken for 10 min prior to counting on a Perkin-Elmer Packard Tri-Carb instrument (model B4430).\n(§2) Data was analyzed by the distribution ratio (Dm), separation factor (SFm1/m2) and extraction percentage (% Extraction) as defined by Equations (6), (7) and (8), respectively. Equation (8) uses concentrations of the metal in each phase since the aqueous: organic ratio was 1. Both the organic and aqueous phases were analyzed after liquid-liquid extraction and phase separation. These calculation methods rely on the assumptions that no metal (M) is lost to sorption or precipitation and that no volume variation occurred during the mass transfer between the aqueous and organic phases.\nIn FIG. 18, aqueous phase: [ligand]=40 mM, buffer sodium lactate/sodium nitrate, organic phase: [HDEHP]=0.5 M, kerosene diluent. T=25° C. O/A=1, one contact. Initial metal concentrations: [Pu-242]=5 μM. Phases analyzed after one contact. Contact time: 30 min. Limit of detection: 0.03% of the initial Pu-242 activity. Data for separation of tetravalent metal ions from trivalent metal ions using 3,4,3-LI(1,2-HOPO) as a hold-back reagent for tetravalent metal ions are shown in TABLE 0.1."}, "[4]": {"test": "Extraction by HDEHP as a function of pH with hold-back reagent", "procedure": "as §1, §2\n(§3) In FIG. 23, aqueous phase: [ligand]=40 mM, buffer sodium lactate/sodium nitrate. Organic phase: [HDEHP]=0.5 M, kerosene diluent. T=25° C. O/A=1, one contact. Initial metal concentrations: [Ac-225]=0.4 nM, [Am-243]=40.4 nM, or [Gd]=500 μM (spiked with Gd-153 for LSC measurements).\nas §3, with “17,” for “23,”, “nitrate, organic” for “nitrate. Organic”, “measurements). Separation factor=ratio M1/M2 in the final organic phase/ratio M1/M2 in the initial aqueous phase. […]” for “measurements).”"}, "[5]": {"conditions": "highest value reached, HDEHP/343HOPO-HNO3 system"}},
  "data": [
    {"compound": "O=C(NCCCN(CCCCN(CCCNC(=O)c1cccc(=O)n1O)C(=O)c1cccc(=O)n1O)C(=O)c1cccc(=O)n1O)c1cccc(=O)n1O", "note": "[3,4,3-LI(1,2-HOPO)]", "values": [
      {"measurement": "Last pKa", "setting": "[1]", "result": 6.64},
      {"measurement": "overall acidity (ΣpKa)", "setting": "[1]; literature value compared with ΣpKa5-8 of 3,4,3-LI(CAM)", "result": 21.2},
      {"measurement": "SFBk/Lu", "setting": "[2]; single step, room temperature, HDEHP-HNO3-343HOPO system", "result": "≤ 320,000"},
      {"measurement": "% Extraction", "setting": "[3]; pH 0.25", "result": 0.00, "unit": "%"},
      {"measurement": "% Extraction", "setting": "[3]; pH 0.85", "result": 0.00, "unit": "%"},
      {"measurement": "% Extraction", "setting": "[3]; pH 1.78", "result": 0.00, "unit": "%"},
      {"measurement": "% Extraction", "setting": "[3]; pH 2.71", "result": 0.00, "unit": "%"},
      {"measurement": "% Extraction", "setting": "[3]; pH 2.87", "result": 0.00, "unit": "%"},
      {"measurement": "% Extraction", "setting": "[3]; pH 3.62", "result": 0.00, "unit": "%"},
      {"measurement": "% Extraction", "setting": "[3]; pH 4.52", "result": 0.00, "unit": "%"},
      {"measurement": "extraction yield of Pu^4+ (upper limit, instrumental detection limit)", "setting": "[3]; value plotted on FIG. 18, all tested pH", "result": "≤ 0.03", "unit": "%"},
      {"measurement": "SFAc/Am", "setting": "[4]; [5]", "result": "130,000"},
      {"measurement": "SFAc/Gd", "setting": "[4]; [5]", "result": "1,300,000"},
      {"measurement": "SFAc/Am", "setting": "[4]; pH 0.9 (±0.1)", "result": "3.99 * 10^2"},
      {"measurement": "SFAc/Am", "setting": "[4]; pH 1.5 (±0.1)", "result": "9.06 * 10^3"},
      {"measurement": "SFAc/Gd", "setting": "[4]; pH 1.5 (±0.1)", "result": "6.55 * 10^2"},
      {"measurement": "SFAc/Am", "setting": "[4]; pH 3.5 (±0.1)", "result": "8.13 * 10^4"},
      {"measurement": "SFAc/Gd", "setting": "[4]; pH 3.5 (±0.1)", "result": "4.61 * 10^5"},
      {"measurement": "SFAc/Am", "setting": "[4]; pH 4.0 (±0.1)", "result": "1.28 * 10^5"},
      {"measurement": "SFAc/Gd", "setting": "[4]; pH 4.0 (±0.1)", "result": "1.33 * 10^6"},
      {"measurement": "extraction of actinium", "setting": "[4]; pH higher than 1.5, 40 mM ligand, 0.5 M HDEHP", "result": "quantitative extraction"},
      {"measurement": "SFAc/Pu", "setting": "[4]; single step, initial Pu/Ac ratio ~10,000 mol/mol, 40 mM chelator, 0.5 M HDEHP", "result": "at least 1,000,000"},
      {"measurement": "separation factor between Ac and relevant metal impurities", "setting": "[4]; summary statement", "result": "10^6"}
    ]},
    {"compound": "O=C(O)CN(CCN(CC(=O)O)CC(=O)O)CCN(CC(=O)O)CC(=O)O", "note": "[DTPA, Diethylenetriaminepentaacetic acid, reference compound]", "values": [
      {"measurement": "Last pKa", "setting": "[1]", "result": 10.4},
      {"measurement": "separation between Bk and Cf", "setting": "[2]; chelator in place of 343HOPO, acidic conditions", "result": "no separation at all"},
      {"measurement": "% Extraction", "setting": "[3]; pH 0.40", "result": 95.24, "unit": "%"},
      {"measurement": "% Extraction", "setting": "[3]; pH 1.27", "result": 4.08, "unit": "%"},
      {"measurement": "% Extraction", "setting": "[3]; pH 1.84", "result": 1.17, "unit": "%"},
      {"measurement": "% Extraction", "setting": "[3]; pH 2.55", "result": 0.63, "unit": "%"},
      {"measurement": "% Extraction", "setting": "[3]; pH 2.75", "result": 0.73, "unit": "%"},
      {"measurement": "% Extraction", "setting": "[3]; pH 3.45", "result": 0.65, "unit": "%"},
      {"measurement": "% Extraction", "setting": "[3]; pH 4.29", "result": 0.29, "unit": "%"},
      {"measurement": "SFAm/Ac", "setting": "[4]; HDEHP/DTPA-HNO3 system", "result": "below 10"},
      {"measurement": "SFGd/Ac", "setting": "[4]; HDEHP/DTPA-HNO3 system", "result": "< 5,300"},
      {"measurement": "maximum metal extraction of Ac(III)", "setting": "[4]; around pH 1.5", "result": 49, "unit": "%"},
      {"measurement": "extraction of Ac(III)", "setting": "[4]; at pH 4", "result": "less than 10%"},
      {"measurement": "SFAc/Gd", "setting": "[4]; pH 0.8 (±0.1)", "result": "<10^−3"},
      {"measurement": "SFAc/Am", "setting": "[4]; pH 0.9 (±0.1)", "result": "5.83 * 10^−2"},
      {"measurement": "SFAc/Am", "setting": "[4]; pH 1.5 (±0.1)", "result": "2.70 * 10^−1"},
      {"measurement": "SFAc/Gd", "setting": "[4]; pH 1.5 (±0.1)", "result": "<10^−3"},
      {"measurement": "SFAc/Am", "setting": "[4]; pH 3.5 (±0.1)", "result": "6.86 * 10^−2"},
      {"measurement": "SFAc/Gd", "setting": "[4]; pH 3.5 (±0.1)", "result": "<10^−3"},
      {"measurement": "SFAc/Am", "setting": "[4]; pH 4.0 (±0.1)", "result": "1.11 * 10^−1"},
      {"measurement": "SFAc/Gd", "setting": "[4]; pH 4.0 (±0.1)", "result": "<10^−3"}
    ]}
  ]
}
